# According to the kinase profiling compilation of Christmann-Franck et al. (2016):
# Experiments:
# Experiment in all cases: radiometric filter-binding kinase assay
# [1] = target: ABL1 (human) (UniProt P00519)
# [2] = target: CDK9 CCNT1 (human) (UniProt P50750+O60563)
# [3] = target: CSNK1G2 (human) (UniProt P78368)
# [4] = target: DDR2 (human) (UniProt Q16832)
# [5] = target: EIF2AK3 (human) (UniProt Q9NZJ5)
# [6] = target: IRAK1 (human) (UniProt P51617)
# [7] = target: MAPKAPK3 (human) (UniProt Q16644)
# [8] = tested on: OXSR1 (human), O95747 [T185E]
# [9] = tested on: PRKAA1 or PRKAA2 (rat); details: accession and sequence are those of the human protein
# [10] = target: PRKCG (human) (UniProt P05129)
# [11] = target: PTK6 (human) (UniProt Q13882)
# [12] = target: SIK2 (human) (UniProt Q9H0K1)
# [13] = target: SIK3 (human) (UniProt Q9Y2K2)
# [14] = target: STK16 (human) (UniProt O75716)
# Chain of STK16 (human) (O75716 whole entry, looked up): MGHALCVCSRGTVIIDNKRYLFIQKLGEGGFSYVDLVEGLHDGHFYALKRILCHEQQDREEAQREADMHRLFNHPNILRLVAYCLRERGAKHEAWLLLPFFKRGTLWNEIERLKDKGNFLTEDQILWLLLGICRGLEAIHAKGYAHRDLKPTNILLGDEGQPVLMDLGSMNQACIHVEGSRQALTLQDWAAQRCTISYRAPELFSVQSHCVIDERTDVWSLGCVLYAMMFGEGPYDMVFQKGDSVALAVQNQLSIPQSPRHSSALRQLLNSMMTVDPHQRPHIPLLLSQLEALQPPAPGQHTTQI
# [15] = target: STK24 (human) (UniProt Q9Y6E0)
# [16] = target: STK33 (human) (UniProt Q9BYT3)
# Chain of STK33 (human) (Q9BYT3 whole entry, looked up): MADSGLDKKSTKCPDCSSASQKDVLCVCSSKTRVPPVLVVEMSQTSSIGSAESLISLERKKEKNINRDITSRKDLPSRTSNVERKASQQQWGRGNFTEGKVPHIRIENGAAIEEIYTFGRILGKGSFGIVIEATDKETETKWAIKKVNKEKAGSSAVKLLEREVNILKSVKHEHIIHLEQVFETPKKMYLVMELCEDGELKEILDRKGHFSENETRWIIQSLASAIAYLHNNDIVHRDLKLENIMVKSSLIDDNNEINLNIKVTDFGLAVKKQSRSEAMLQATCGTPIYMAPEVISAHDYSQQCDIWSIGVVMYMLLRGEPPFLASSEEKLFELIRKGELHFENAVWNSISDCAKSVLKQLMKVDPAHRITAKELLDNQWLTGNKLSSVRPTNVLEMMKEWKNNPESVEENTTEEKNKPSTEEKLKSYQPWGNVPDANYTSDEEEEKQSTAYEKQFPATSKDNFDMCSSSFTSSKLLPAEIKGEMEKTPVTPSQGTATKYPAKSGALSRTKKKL
# [17] = target: TEK (human) (UniProt Q02763)
# [18] = target: TESK1 (human) (UniProt Q15569)
# [19] = target: TLK1 (human) (UniProt Q9UKI8)
# Chain of TLK1 (human) (Q9UKI8 whole entry, looked up): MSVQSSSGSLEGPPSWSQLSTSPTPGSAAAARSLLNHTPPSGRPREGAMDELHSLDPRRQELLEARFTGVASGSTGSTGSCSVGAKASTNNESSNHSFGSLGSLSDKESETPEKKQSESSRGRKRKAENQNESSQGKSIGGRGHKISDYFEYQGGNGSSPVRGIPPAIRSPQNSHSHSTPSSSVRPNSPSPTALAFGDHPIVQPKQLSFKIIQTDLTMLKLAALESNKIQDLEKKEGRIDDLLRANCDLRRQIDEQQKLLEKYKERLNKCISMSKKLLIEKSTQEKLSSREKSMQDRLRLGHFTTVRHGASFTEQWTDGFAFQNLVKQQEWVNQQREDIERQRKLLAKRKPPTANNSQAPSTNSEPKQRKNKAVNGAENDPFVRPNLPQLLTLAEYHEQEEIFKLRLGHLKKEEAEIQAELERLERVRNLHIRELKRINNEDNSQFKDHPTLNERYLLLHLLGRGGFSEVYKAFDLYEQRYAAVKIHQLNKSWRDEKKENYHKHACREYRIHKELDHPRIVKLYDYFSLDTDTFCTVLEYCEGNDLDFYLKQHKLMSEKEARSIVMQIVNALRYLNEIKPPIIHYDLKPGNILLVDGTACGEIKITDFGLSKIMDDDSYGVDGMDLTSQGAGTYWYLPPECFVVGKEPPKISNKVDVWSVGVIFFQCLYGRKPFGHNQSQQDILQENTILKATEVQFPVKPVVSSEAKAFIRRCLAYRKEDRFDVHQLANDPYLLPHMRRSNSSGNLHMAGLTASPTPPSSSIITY
# [20] = target: TSSK1B (human) (UniProt Q9BXA7)
# [21] = target: TTBK1 (human) (UniProt Q5TCY1)
# [22] = target: ULK1 (human) (UniProt O75385)
# [23] = target: ULK2 (human) (UniProt Q8IYT8)
# [24] = target: ZAP70 (human) (UniProt P43403)
# [25] = target: WNK1 (human) (UniProt Q9H4A3)
# Chain of WNK1 (human) (Q9H4A3 whole entry, looked up): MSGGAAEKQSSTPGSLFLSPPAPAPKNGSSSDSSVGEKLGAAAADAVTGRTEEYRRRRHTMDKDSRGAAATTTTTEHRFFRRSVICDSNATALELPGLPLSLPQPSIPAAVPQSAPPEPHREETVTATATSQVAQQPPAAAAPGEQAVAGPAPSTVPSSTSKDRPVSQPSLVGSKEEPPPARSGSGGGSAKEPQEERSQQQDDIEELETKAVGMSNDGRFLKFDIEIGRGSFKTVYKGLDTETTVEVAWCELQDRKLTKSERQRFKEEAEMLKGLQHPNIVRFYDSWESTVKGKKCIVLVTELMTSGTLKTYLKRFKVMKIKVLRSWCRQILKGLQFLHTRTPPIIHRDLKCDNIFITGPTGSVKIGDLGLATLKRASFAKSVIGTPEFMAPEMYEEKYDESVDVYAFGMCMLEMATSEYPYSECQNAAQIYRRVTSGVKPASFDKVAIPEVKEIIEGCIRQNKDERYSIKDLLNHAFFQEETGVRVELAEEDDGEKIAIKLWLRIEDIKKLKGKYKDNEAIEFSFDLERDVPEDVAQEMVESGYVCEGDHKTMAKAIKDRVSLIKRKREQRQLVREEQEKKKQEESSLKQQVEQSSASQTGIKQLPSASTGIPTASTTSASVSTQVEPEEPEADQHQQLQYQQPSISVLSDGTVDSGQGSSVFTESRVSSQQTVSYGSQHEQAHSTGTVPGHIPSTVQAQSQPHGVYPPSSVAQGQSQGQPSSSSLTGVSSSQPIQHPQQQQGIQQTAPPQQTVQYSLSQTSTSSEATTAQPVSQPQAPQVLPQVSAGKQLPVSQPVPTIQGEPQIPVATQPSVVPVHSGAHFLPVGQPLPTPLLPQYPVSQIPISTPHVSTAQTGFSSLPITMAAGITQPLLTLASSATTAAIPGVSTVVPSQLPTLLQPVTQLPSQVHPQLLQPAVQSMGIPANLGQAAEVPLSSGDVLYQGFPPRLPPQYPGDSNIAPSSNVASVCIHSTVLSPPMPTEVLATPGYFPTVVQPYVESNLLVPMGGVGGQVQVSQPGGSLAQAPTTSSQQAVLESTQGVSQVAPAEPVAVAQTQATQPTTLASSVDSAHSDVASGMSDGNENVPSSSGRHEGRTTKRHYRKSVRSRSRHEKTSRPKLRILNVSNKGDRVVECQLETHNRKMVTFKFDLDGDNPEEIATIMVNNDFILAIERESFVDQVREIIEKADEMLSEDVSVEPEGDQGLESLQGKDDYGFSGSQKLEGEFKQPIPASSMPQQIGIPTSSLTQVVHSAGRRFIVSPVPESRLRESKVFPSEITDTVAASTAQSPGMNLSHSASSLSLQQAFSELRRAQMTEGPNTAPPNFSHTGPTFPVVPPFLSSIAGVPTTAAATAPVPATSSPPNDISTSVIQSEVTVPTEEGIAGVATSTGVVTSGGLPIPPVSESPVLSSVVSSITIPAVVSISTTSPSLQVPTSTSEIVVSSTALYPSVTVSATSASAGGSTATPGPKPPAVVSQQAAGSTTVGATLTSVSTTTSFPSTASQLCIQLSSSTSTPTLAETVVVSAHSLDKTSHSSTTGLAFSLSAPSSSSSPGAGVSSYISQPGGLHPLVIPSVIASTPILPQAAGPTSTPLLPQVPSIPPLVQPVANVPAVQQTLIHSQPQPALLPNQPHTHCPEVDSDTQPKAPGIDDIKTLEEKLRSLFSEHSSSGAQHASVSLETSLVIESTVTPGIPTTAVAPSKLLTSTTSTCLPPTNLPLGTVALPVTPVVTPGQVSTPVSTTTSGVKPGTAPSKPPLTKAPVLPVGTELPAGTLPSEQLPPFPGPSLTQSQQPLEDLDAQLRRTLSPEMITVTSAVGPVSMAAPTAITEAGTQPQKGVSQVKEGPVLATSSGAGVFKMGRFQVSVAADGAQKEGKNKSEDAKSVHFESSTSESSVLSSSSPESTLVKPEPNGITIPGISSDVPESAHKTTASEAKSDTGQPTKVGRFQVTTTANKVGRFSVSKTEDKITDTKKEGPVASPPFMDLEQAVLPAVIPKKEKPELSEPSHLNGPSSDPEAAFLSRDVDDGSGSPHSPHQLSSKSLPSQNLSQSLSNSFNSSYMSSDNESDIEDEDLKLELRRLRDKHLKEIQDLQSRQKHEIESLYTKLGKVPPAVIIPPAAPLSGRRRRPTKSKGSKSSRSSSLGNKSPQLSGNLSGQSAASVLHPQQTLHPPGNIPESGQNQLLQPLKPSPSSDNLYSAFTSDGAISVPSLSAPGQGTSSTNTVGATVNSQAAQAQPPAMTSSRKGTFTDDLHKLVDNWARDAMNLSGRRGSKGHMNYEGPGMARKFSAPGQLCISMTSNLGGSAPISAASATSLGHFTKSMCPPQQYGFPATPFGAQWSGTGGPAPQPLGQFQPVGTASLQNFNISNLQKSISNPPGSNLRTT
# Chain of EIF2AK3 (human) (Q9NZJ5 whole entry, looked up): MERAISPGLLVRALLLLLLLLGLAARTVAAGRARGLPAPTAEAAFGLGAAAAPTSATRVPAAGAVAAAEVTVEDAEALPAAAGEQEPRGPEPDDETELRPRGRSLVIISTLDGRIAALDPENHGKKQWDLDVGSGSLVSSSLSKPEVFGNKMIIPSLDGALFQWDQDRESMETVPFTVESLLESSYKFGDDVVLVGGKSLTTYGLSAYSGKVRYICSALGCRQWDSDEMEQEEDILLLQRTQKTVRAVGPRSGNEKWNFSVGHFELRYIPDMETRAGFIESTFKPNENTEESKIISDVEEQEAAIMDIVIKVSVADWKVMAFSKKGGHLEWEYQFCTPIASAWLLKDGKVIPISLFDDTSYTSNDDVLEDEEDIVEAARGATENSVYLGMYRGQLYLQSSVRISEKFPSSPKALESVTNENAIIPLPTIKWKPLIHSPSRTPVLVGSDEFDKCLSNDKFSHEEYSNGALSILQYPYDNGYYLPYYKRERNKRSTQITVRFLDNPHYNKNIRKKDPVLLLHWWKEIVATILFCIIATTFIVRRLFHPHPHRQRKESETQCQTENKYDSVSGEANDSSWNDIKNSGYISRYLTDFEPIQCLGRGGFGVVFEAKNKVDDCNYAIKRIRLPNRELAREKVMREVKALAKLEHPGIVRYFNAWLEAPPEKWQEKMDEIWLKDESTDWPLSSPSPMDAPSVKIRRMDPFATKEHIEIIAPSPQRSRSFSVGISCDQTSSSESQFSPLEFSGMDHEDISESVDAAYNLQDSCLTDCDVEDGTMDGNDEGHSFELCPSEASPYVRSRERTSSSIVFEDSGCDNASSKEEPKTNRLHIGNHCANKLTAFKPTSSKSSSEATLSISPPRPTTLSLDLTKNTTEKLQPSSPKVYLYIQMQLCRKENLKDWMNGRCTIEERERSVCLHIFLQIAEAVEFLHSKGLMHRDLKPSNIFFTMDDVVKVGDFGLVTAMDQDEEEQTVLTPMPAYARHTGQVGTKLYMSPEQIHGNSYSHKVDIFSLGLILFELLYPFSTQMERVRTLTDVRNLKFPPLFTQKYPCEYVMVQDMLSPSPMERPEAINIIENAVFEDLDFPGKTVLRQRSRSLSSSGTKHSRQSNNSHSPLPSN
smiles,measurement,setting,value
Cc1cc(NC(=O)c2cccc(NC(=O)/C=C/CN(C)C)c2)ccc1Nc1nccc(-c2cccnc2)n1,residual activity,[1]; compound 0.1 µM,97%
same,residual activity,[1]; compound 1.0 µM,86%
same,residual activity,[2]; compound 0.1 µM,85%
same,residual activity,[2]; compound 1.0 µM,80%
same,residual activity,[3]; compound 0.1 µM,109%
same,residual activity,[3]; compound 1.0 µM,87%
same,residual activity,[4]; compound 0.1 µM,106%
same,residual activity,[4]; compound 1.0 µM,97%
same,residual activity,[5]; compound 0.1 µM,103%
same,residual activity,[5]; compound 1.0 µM,93%
same,residual activity,[6]; compound 0.1 µM,93%
same,residual activity,[6]; compound 1.0 µM,63%
same,residual activity,[7]; compound 1.0 µM,90%
same,residual activity,[8]; compound 0.1 µM,96%
same,residual activity,[8]; compound 1.0 µM,91%
same,residual activity,[9]; compound 0.1 µM,101%
same,residual activity,[9]; compound 1.0 µM,77%
same,residual activity,[10]; compound 0.1 µM,92%
same,residual activity,[10]; compound 1.0 µM,91%
same,residual activity,[11]; compound 1.0 µM,75%
same,residual activity,[12]; compound 0.1 µM,100%
same,residual activity,[12]; compound 1.0 µM,105%
same,residual activity,[13]; compound 0.1 µM,88%
same,residual activity,[13]; compound 1.0 µM,79%
same,residual activity,[14]; compound 0.1 µM,110%
same,residual activity,[14]; compound 1.0 µM,101%
same,residual activity,[15]; compound 0.1 µM,85%
same,residual activity,[15]; compound 1.0 µM,82%
same,residual activity,[16]; compound 0.1 µM,99%
same,residual activity,[16]; compound 1.0 µM,90%
same,residual activity,[17]; compound 0.1 µM,105%
same,residual activity,[17]; compound 1.0 µM,98%
same,residual activity,[18]; compound 0.1 µM,89%
same,residual activity,[18]; compound 1.0 µM,93%
same,residual activity,[19]; compound 0.1 µM,99%
same,residual activity,[19]; compound 1.0 µM,100%
same,residual activity,[20]; compound 0.1 µM,91%
same,residual activity,[20]; compound 1.0 µM,86%
same,residual activity,[21]; compound 0.1 µM,92%
same,residual activity,[21]; compound 1.0 µM,83%
same,residual activity,[22]; compound 0.1 µM,27%
same,residual activity,[22]; compound 1.0 µM,67%
same,residual activity,[23]; compound 0.1 µM,28%
same,residual activity,[23]; compound 1.0 µM,69%
same,residual activity,[24]; compound 0.1 µM,105%
COc1ccc(N(C(=O)Nc2c(C)cccc2C)c2cc(Nc3ccc(N4CCN(C)CC4)cc3)ncn2)c(OC)c1,residual activity,[2]; compound 0.01 µM,104%
same,residual activity,[2]; compound 0.1 µM,87%
same,residual activity,[2]; compound 1.0 µM,95%
same,residual activity,[3]; compound 0.01 µM,96%
same,residual activity,[3]; compound 0.1 µM,93%
same,residual activity,[4]; compound 0.01 µM,17%
same,residual activity,[4]; compound 0.1 µM,8%
same,residual activity,[4]; compound 1.0 µM,6%
same,residual activity,[5]; compound 0.01 µM,91%
same,residual activity,[5]; compound 0.1 µM,97%
same,residual activity,[5]; compound 1.0 µM,95%
same,residual activity,[6]; compound 0.01 µM,98%
same,residual activity,[6]; compound 0.1 µM,95%
same,residual activity,[6]; compound 1.0 µM,95%
same,residual activity,[7]; compound 0.01 µM,96%
same,residual activity,[7]; compound 0.1 µM,90%
same,residual activity,[7]; compound 1.0 µM,75%
same,residual activity,[8]; compound 0.01 µM,101%
same,residual activity,[8]; compound 0.1 µM,93%
same,residual activity,[8]; compound 1.0 µM,57%
same,residual activity,[10]; compound 0.01 µM,101%
same,residual activity,[10]; compound 0.1 µM,104%
same,residual activity,[10]; compound 1.0 µM,96%
same,residual activity,[11]; compound 0.01 µM,97%
same,residual activity,[11]; compound 0.1 µM,24%
same,residual activity,[11]; compound 1.0 µM,3%
same,residual activity,[14]; compound 0.01 µM,106%
same,residual activity,[14]; compound 0.1 µM,106%
same,residual activity,[14]; compound 1.0 µM,106%
same,residual activity,[15]; compound 0.01 µM,105%
same,residual activity,[15]; compound 1.0 µM,40%
same,residual activity,[16]; compound 0.01 µM,113%
same,residual activity,[16]; compound 0.1 µM,106%
same,residual activity,[16]; compound 1.0 µM,107%
same,residual activity,[17]; compound 0.01 µM,116%
same,residual activity,[17]; compound 0.1 µM,82%
same,residual activity,[17]; compound 1.0 µM,42%
same,residual activity,[18]; compound 0.01 µM,82%
same,residual activity,[18]; compound 0.1 µM,29%
same,residual activity,[18]; compound 1.0 µM,16%
same,residual activity,[19]; compound 0.01 µM,98%
same,residual activity,[19]; compound 0.1 µM,93%
same,residual activity,[19]; compound 1.0 µM,93%
same,residual activity,[20]; compound 0.01 µM,108%
same,residual activity,[20]; compound 0.1 µM,102%
same,residual activity,[20]; compound 1.0 µM,62%
same,residual activity,[21]; compound 0.01 µM,100%
same,residual activity,[21]; compound 0.1 µM,117%
same,residual activity,[21]; compound 1.0 µM,112%
same,residual activity,[25]; compound 0.01 µM,100%
same,residual activity,[25]; compound 0.1 µM,107%
same,residual activity,[25]; compound 1.0 µM,102%
same,residual activity,[24]; compound 0.01 µM,96%
same,residual activity,[24]; compound 0.1 µM,98%
same,residual activity,[24]; compound 1.0 µM,94%
